We go through 1 compound from patent US20100144853A1, “NOVEL COMBINED ADMINISTRATION” (priority 2008, published 2010).

This data set can be described thus: Stability of COMPOUND A in human intestinal fluids, Procedure F (suspension, no separation of excess), first table. It is filed as in vitro ADME. To be noted: summary of Example 5. Here is the method: Fasted Intestinal Fluids: the fluids from 4 different subjects were collected with a naso-jejunal tube after fasting overnight and pooled.
Procedure F (COMPOUND A and COMPOUND B in suspension, the degradation immediately stopped without separation of excess compound): Stock K=COMPOUND B suspension (0.5 mg/mL)
Dilute 1 part of COMPOUND B suspension (stock J) with 3 parts of FeSSIF pH6.5 solution.
500 μL of freshly thawed intestinal fluids (fasted and stimulated state) were added to 1.2 mg of COMPOUND A in a 1 mL glass vial. The suspended compound was stirred for 15 min at 37° C. to obtain wetting and a homogenous suspension. In parallel, 4 glass vials were prepared with 20 μL of a COMPOUND B suspension at different concentrations. These concentrations were obtained by mixing FeSSIF pH6.5 and COMPOUND B suspension (stock K) in different ratios, respectively 1:[…], 1:1, 0:1 to obtain 0, 1, 2 and 4% related to COMPOUND A. At time zero, 100 μL of COMPOUND A suspension preincubated at 37° C. were added to the 20 μL COMPOUND B suspension. The mixture was incubated at 37° C. with gentle stirring. After 15 min and 60 min, the reaction was stopped by mixing a 50 μL sample with 150 μL isopropanol and centrifuged at 5′000 rpm during 5 min. The clear supernatant was analyzed for the hydrolysis product and its oxidized form by HPLC.

Take `CCCCCCCCCCC[C@@H](C[C@@H]1OC(=O)[C@H]1CCCCCC)OC(=O)[C@H](CC(C)C)NC=O` [COMPOUND B, 1-(3-hexyl-4-oxo-oxetan-2-yl)tridecan-2-yl 2-formyl-amino-4-methyl-pentanoate, reference compound]: the “Effect of COMPOUND B on gastrointestinal enzyme induced hydrolytic degradation of COMPOUND A” value is “efficiently prevents gastrointestinal enzyme induced hydrolytic degradation of COMPOUND A”.
